Experimental data from ChEMBL document CHEMBL1201862, “PubChem BioAssay data set” (2004).
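The compound was tested at five concentrations on cells cultured in 96-well plates, with a 48-hour exposure period. GI50 marks 50% less growth.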 Active and inactive are the calls of the source. Cut-off read from the data, not from the text of the source: active = GI50 up to about 1.1 µM and inactive = higher.

Tests used:
Experiment in all cases: NCI anticancer screen, dose series, 48 h
SNB-19 = system: SNB-19
RXF 393 = system: RXF 393
A549 = system: A549
SF-295 = system: SF-295
SNB-75 = system: SNB-75
KM12 = system: KM12
Malme-3M = system: Malme-3M
OVCAR-3 = system: OVCAR-3
786-0 = system: 786-0
NCI/ADR-RES = system: NCI/ADR-RES
LOX IMVI = system: LOX IMVI
SF-539 = system: SF-539
HL-60 = system: HL-60
OVCAR-4 = system: OVCAR-4
M14 = system: M14
HOP-92 = system: HOP-92
UACC-257 = system: UACC-257
NCI-H522 = system: NCI-H522

Measured: GI50

Cc1ccc(/C=c2\c(=O)[nH]c3nc4ccccc4c(=O)n23)cc1
inactive: SNB-19 34.9 µM | RXF 393 29.6 µM | A549 94.4 µM | SF-295 73.1 µM | SNB-75 28.6 µM | KM12 45.7 µM | Malme-3M 45.5 µM | OVCAR-3 32.8 µM | 786-0 39.4 µM | NCI/ADR-RES 39.4 µM | LOX IMVI 29.1 µM | SF-539 18.8 µM | HL-60 29.2 µM | OVCAR-4 > 100 µM | M14 37.5 µM | HOP-92 55.2 µM | UACC-257 70 µM | NCI-H522 29 µM

CC(=O)N(C(=O)CC(=O)N1N=C(c2ccccc2)C(/N=N/c2ccccc2[N+](=O)[O-])C1=O)c1ccc(Cl)cc1 (configuration not stated)
inactive: SNB-19 > 10 µM | RXF 393 > 10 µM | A549 > 10 µM | SF-295 > 10 µM | SNB-75 9.55 µM | KM12 > 10 µM | Malme-3M > 10 µM | OVCAR-3 > 10 µM | 786-0 > 10 µM | NCI/ADR-RES > 10 µM | LOX IMVI > 10 µM | SF-539 > 10 µM | HL-60 > 10 µM | OVCAR-4 > 10 µM | HOP-92 > 10 µM | UACC-257 > 10 µM | NCI-H522 > 10 µM

COC(=O)C1=C(OC(=O)/C(=C/c2ccccc2)c2ccc([N+](=O)[O-])cc2)C(C(=O)OC)[C@@]2(O)[C@@H](C(=O)OC)[C@H](C)C[C@@H]1[C@@H]2C(=O)OC (some centres not stated)
inactive: SNB-19 > 100 µM | RXF 393 53 µM | A549 76.2 µM | SF-295 > 100 µM | SNB-75 72.9 µM | KM12 > 100 µM | Malme-3M > 100 µM | OVCAR-3 > 100 µM | 786-0 > 100 µM | NCI/ADR-RES > 100 µM | LOX IMVI > 100 µM | SF-539 51.5 µM | HL-60 78 µM | OVCAR-4 > 100 µM | M14 > 100 µM | HOP-92 > 100 µM | UACC-257 > 100 µM | NCI-H522 77.3 µM

CCC(C)C(C(=O)N/N=C1/SCC(=O)N1C)C(=O)N/N=C1/SCC(=O)N1C (configuration not stated)
inactive: SNB-19 > 100 µM | RXF 393 > 100 µM | A549 > 100 µM | SF-295 > 100 µM | SNB-75 > 100 µM | KM12 > 100 µM | Malme-3M > 100 µM | OVCAR-3 > 100 µM | 786-0 > 100 µM | NCI/ADR-RES > 100 µM | LOX IMVI > 100 µM | SF-539 > 100 µM | HL-60 2.04 µM | OVCAR-4 > 100 µM | M14 > 100 µM | HOP-92 > 100 µM | UACC-257 > 100 µM | NCI-H522 > 100 µM

COc1cc(C(c2c(O)c3ccccc3oc2=O)c2c(O)c3ccccc3oc2=O)ccc1O
inactive: SNB-19 26.8 µM | RXF 393 18 µM | A549 59.7 µM | SF-295 35.1 µM | SNB-75 20.7 µM | KM12 32.7 µM | Malme-3M 19 µM | OVCAR-3 19.5 µM | 786-0 20.2 µM | NCI/ADR-RES 28.6 µM | LOX IMVI 24.6 µM | SF-539 23.3 µM | HL-60 24.7 µM | OVCAR-4 49.1 µM | M14 18.1 µM | HOP-92 14.6 µM | UACC-257 19.1 µM | NCI-H522 20.8 µM

Oc1cc(Cc2ccccc2)c(Cc2ccccc2)cc1O
inactive: SNB-19 > 10 µM | RXF 393 > 10 µM | A549 > 10 µM | SF-295 > 10 µM | SNB-75 4.62 µM | KM12 > 10 µM | Malme-3M > 10 µM | OVCAR-3 > 10 µM | 786-0 > 10 µM | NCI/ADR-RES > 10 µM | LOX IMVI > 10 µM | SF-539 > 10 µM | HL-60 > 10 µM | OVCAR-4 > 10 µM | M14 > 10 µM | HOP-92 > 10 µM | UACC-257 > 10 µM | NCI-H522 > 10 µM
